This assay has as its target Beta-lactamase (Escherichia coli (strain K12), UniProt P00811). The experiment in a line: Beta-lactamase AmpC Inhibition Assay. Conditions: pH 7. An excerpt: Class C Beta-lactamase AmpC inhibition assay

Structures are written as SMILES.

Beta-lactamase, sequence (P00811 whole entry): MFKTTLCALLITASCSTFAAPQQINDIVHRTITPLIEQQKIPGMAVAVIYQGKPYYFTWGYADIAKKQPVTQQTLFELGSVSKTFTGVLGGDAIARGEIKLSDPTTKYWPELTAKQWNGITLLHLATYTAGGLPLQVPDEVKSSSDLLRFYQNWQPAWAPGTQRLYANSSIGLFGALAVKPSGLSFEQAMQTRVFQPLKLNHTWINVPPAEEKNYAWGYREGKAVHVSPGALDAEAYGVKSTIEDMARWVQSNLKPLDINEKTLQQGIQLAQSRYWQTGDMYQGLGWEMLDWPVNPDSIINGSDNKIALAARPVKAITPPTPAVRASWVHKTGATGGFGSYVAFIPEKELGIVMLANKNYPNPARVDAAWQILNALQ

Usually Ki stands for a dissociation constant, usually derived from enzyme kinetics or from competition with a known ligand. A lower Ki goes with tighter binding. Turning to `O=C1c2ccccc2C(=O)N1CCc1nnn[nH]1` [CID7129233], the Ki came out at 3300 µM.
In turn, `CCc1c(C)[nH]n(-c2nnn[nH]2)c1=O` [CID7357365] showed a Ki of 3100 µM.
In the case of `O=C(Nc1cccc(-c2nnn[nH]2)c1)c1cccc(F)c1` [CID8067740], the inhibitory constant (Ki) was 2800 µM.
`C[C@@H](C(=O)O)N1C(=O)C2C3CCC(C3)C2C1=O` (stereo partly specified) [CID25181259] registered a Ki of 2200 µM.
On to `O=C(O)CN1C(=O)O[C@@H](c2ccccc2)C1=O` [CID25181261], for which the affinity, expressed as Ki, was 3500 µM.
For `O=c1c2c3c(sc2ncn1Cc1nn[nH]n1)CCCC3` [CID 7263523], the affinity, expressed as Ki, was 1500 µM.

(Values after BindingDB's records for doi:10.1038/nchembio.155 (University of California San Francisco, 2009).)
